Assay results published in PMC6161432 (The Journal of Venomous Animals and Toxins Including …, 2018).
Entries after “also recorded” stand apart in the source; their conditions may differ. Like-named read-outs stand apart in the source and are kept apart here.

Tests used:
[1] = test system: Leishmania (L.) infantum promastigotes; assay: Activity against L. (L.) infantum promastigotes (MTT viability assay); assay type: cell-based; details: 48 h at 24 °C, NA = not active, maximum tested concentration 100 μM; for EC50: read-out: EC50 Leishmania (L.) infantum Promastigote (95% CI)
Protocol: (§1) Isolated promastigotes of Leishmania (L.) infantum (MHOM/BR/1972/LD) were maintained in M-199 medium supplemented with 10% calf serum and 0.25% hemin at 24 °C. The L. (L.) infantum (MHOM/BR/1972/LD) was maintained in hamsters (Mesocricetus auratus). Amastigotes were harvested from spleens of infected hamsters. The animals were infected with 10^8 amastigotes (300 μL) by the i.p. route. At 60 days post-infection, the animals were euthanized, and the spleens analyzed by light microscopy using Giemsa-stained smears. The parasite load was expressed in Leishman-Donovan units (i.e., the number of amastigotes per 1000 nucleated cells x organ weight [in g] × 2 × 10^5). Briefly, the spleen was macerated in a tissue grinder tube containing 5 mL of phosphate-buffered saline (PBS), whereas the amastigotes were separated by differential centrifugation to obtain a suspension of parasites. The first centrifugation of the spleen suspension (0.8 rpm) was employed to separate the red and white cells (pellet) from the amastigote forms (supernatant). Next, a second centrifugation of the supernatant from the previous step (2.8 rpm) was performed to concentrate the amastigote forms.
Promastigotes were counted in a Neubauer hemocytometer and seeded at 1 × 10^6/well to obtain a final volume of 150 μL. Controls with DMSO and without drugs were also performed. Miltefosine was dissolved in H2O at 30 mg/mL and used as a standard drug. […] Each point was tested in duplicate. The plate was incubated for 48 h at 24 °C and the viability of promastigotes was verified by morphology in light microscopy and by the MTT assay. Briefly, MTT ([…]) was dissolved in PBS, sterilized through 0.22 μm membranes and added (20 μL/well) for 4 h at 24 °C. Promastigotes were incubated without compounds and used as viability control. Formazan extraction was performed using 10% SDS for 18 h (80 μL/well) at 24 °C and the optical density (OD) was determined in a Multiskan MS (UNISCIENCE) at 550 nm. One hundred percent (100%) viability was expressed based on the OD of control promastigotes, after normalization.
(§2) The obtained data represent the mean and standard deviation of duplicate samples from two independent assays. EC50 values were calculated using sigmoid dose–response curves in the software GraphPad Prism 5.0; the 95% confidence intervals are included in parentheses. The Mann–Whitney test was used for the significance test (P value).

[2] = test system: Leishmania (L.) infantum intracellular amastigotes; assay: Activity against L. (L.) infantum intracellular amastigotes in mouse peritoneal macrophages (Giemsa counting, parasitic index); assay type: cell-based; details: for EC50: read-out: EC50 Leishmania (L.) infantum Amastigote (95% CI)
Protocol: as §1
Peritoneal macrophages were collected from the peritoneal cavity of female BALB/c mice by washing with RPMI-1640 without phenol red, supplemented with 10% fetal bovine serum.
Amastigotes were isolated from spleens of previously infected hamsters, and separated by differential centrifugation. The tissue sample was macerated to break the cell membranes to release all cell contents including the amastigotes. Then the lysate was subjected to two repeated centrifugations (0.8 rpm followed 2.8 rpm) where density separation causes a sediment. The supernatant and the pellet were recovered via the first and second centrifugation, respectively. […] Non-internalized parasites were removed by washing once with medium, whereas tested compounds were incubated with infected macrophages for 96 h. Miltefosine was also used as a standard control drug. Subsequently, the cells were fixed with MeOH, stained with Giemsa and observed through a light microscope. The parasite burden was determined by the ratio of infected macrophages versus the mean number of amastigotes per macrophage out of 500 macrophages, i.e., the parasitic index (PI). […] Each point was tested in duplicate.
as §2

[3] = Cytotoxicity against mammalian cells (MTT assay); details: mouse
NCTC clone L-929 cells = assay: Cytotoxicity against mammalian cells (MTT assay); details: CC50 against mammalian cells / EC50 against amastigotes
[4] = intracellular amastigotes in BALB/c peritoneal macrophages, 96 h incubation, NA = not active, maximum tested concentration 100 μM
[5] = Peritoneal macrophage, 96 h, intracellular amastigotes in BALB/c peritoneal macrophages, 96 h incubation, NA = not active, maximum tested concentration 100 μM

| Structure (SMILES) | EC50 [2, 5] [µM] | EC50 [2, 4] [µM] | EC50 Leishmania (L.) infantum Promastigote (95% CI) [1] | EC50 Leishmania (L.) infantum Amastigote (95% CI) [2, 4] | CC50 at 48 h ([3]; NCTC clone L-929 cells) [µM] | EC50 Leishmania (L.) infantum Amastigote (95% CI) ([2]; 96 h, 100 µM) | CC50 at 48 h [3] [µM] | EC50 ([1]; 48 h) [µM] | SI Amastigote (selectivity index) (NCTC clone L-929 cells) | EC50 [1] [µM] |
| --- | --- | --- | --- | --- | --- | --- | --- | --- | --- | --- |
| C=CCc1cc(OC)c(O)c(-c2cc(CC=C)cc(OC)c2O)c1 [Compound 5] | – | – | no activity | inactive | 58.1 | – | – | – | – | – |
| C=CCc1ccc(O)c(OC)c1 [eugenol, reference compound] | – | – | no activity | did not display activity; also recorded: no activity | > 200 | – | – | – | – | – |
| C=CCc1ccc(Oc2cc([C@H](O)C=C)cc(OC)c2O)c(OC)c1 [Compound 3, 1-[(7R)-hydroxy-8-propenyl]-3-[3′-methoxy-1′-(8′-propenyl)-phenoxy]-4-hydroxy-5-methoxybenzene] | – | – | no activity | inactive | > 200 | – | – | – | – | – |
| C=CCc1ccc(OC)c(OC)c1 [methyleugenol] | – | – | – | did not display activity | – | no activity | > 200 | – | – | – |
| C=CCc1cc(OC)c(OC)c(-c2cc(CC=C)cc(OC)c2OC)c1 [Compound 6, dehydrodieugenol dimethyl ether] | 13.7 | – | – | – | > 200 | – | – | 88.8 | > 14.6 | – |

Now from value to molecule, other results behind:

| EC50 [2, 5] [µM] | EC50 [2, 4] [µM] | Structure (SMILES) | EC50 Leishmania (L.) infantum Promastigote (95% CI) [1] | EC50 Leishmania (L.) infantum Amastigote (95% CI) [2, 4] | CC50 at 48 h ([3]; NCTC clone L-929 cells) [µM] | EC50 Leishmania (L.) infantum Amastigote (95% CI) ([2]; 96 h, 100 µM) | CC50 at 48 h [3] [µM] | EC50 ([1]; 48 h) [µM] | SI Amastigote (selectivity index) (NCTC clone L-929 cells) | EC50 [1] [µM] |
| --- | --- | --- | --- | --- | --- | --- | --- | --- | --- | --- |
| 16.4 | 16.9 | CCCCCCCCCCCCCCCCOP(=O)([O-])OCC[N+](C)(C)C [miltefosine, reference compound] | – | – | 122 | – | – | 16.9 | 7.2 | 16.4 |
| 67.7 | – | C=CCc1ccc(Oc2cc([C@H](O)C=C)cc(OC)c2OC)c(OC)c1 [Compound 4, 1-[(7R)-hydroxy-8-propenyl]-3-[3′-methoxy-1′-(8′-propenyl)-phenoxy]-4,5-dimethoxybenzene] | – | – | > 200 | – | – | 65.4 | > 2.9 | – |
